Assays:
pregnant rats [1] = assay: Delivery day and pup survival after L-NAME infusion to pregnant rats; effect of CGRP on fetal survival; format: in vivo; conditions: L-NAME 50/mg/day infusion to pregnant rats; 5 animals
pregnant rats [2] = assay: Effects of L-NAME infusion on systolic blood pressure in pregnant rats; format: in vivo, rat; conditions: n = 5
Procedure: The effects of hypertensive agent L-NAME (50 mg/rat) on blood pressure were studied. […] L-NAME was infused as described in the FIG. 2.

COC(=O)[C@@H](N)CCCNC(=N)N[N+](=O)[O-] [L-NAME, N^G -nitro-L-arginine methyl ester]
# of dead pups (pregnant rats [1]): 10
Weight of pups (pregnant rats [1]): 5.14 ± 0.07 g
Systolic Blood Pressure (pregnant rats [2]; Gestational Day 17 (before infusion start on day 18), L-NAME 50 mg/day): 116 ± 3 mm Hg
Systolic Blood Pressure (pregnant rats [2]; Gestational Day 18, L-NAME 50 mg/day infused from day 18): 137 ± 6 mm Hg
Systolic Blood Pressure (pregnant rats [2]; Gestational Day 19, L-NAME 50 mg/day infused from day 18): 154 ± 3 mm Hg
Systolic Blood Pressure (pregnant rats [2]; Gestational Day 22, L-NAME 50 mg/day infused from day 18): 137 ± 8 mm Hg
Systolic Blood Pressure (pregnant rats [2]; Postpartum PP Day 1, L-NAME 50 mg/day): 145 ± 5 mm Hg
Systolic Blood Pressure (pregnant rats [2]; Postpartum PP Day 2, L-NAME 50 mg/day): 140 ± 5 mm Hg

Source: patent US5910482A (priority 1996, dated 1999)
